Results from the NIST ThermoML archive (doi:10.1021/je060271a).
Several values for one entry are separate records, joined by “and”; a condition that tells them apart may be missing. Equal entries are not always repeated.

Details: 283.14 K, Liquid, Vibrating tube method

CCCCCCC(=O)OCC(COC(=O)CCCCCC)(COC(=O)CCCCCC)COC(=O)CCCCCC [pentaerythritol tetraheptanoate]
Details	mass density
2521.6 kPa	987.2 kg/m3
2536.4 kPa	987.3 kg/m3
2553.4 kPa	987.3 kg/m3
2568.1 kPa	987.2 kg/m3
2582.9 kPa	987.4 kg/m3
2600 kPa	987.4 kg/m3
2614.3 kPa	987.4 kg/m3
2628.5 kPa	987.3 kg/m3
2642.2 kPa	987.3 kg/m3
2656.6 kPa	987.4 kg/m3
2675.1 kPa	987.4 kg/m3
2688.8 kPa	987.5 kg/m3
2704.6 kPa	987.4 kg/m3
2719.9 kPa	987.5 kg/m3
2736 kPa	987.6 kg/m3
2751.8 kPa	987.5 kg/m3
2766.5 kPa	987.5 kg/m3
2800.3 kPa	987.5 kg/m3
2816.5 kPa	987.5 kg/m3
2832.1 kPa	987.5 kg/m3
2851.8 kPa	987.5 kg/m3
2867.8 kPa	987.5 kg/m3
2885.5 kPa	987.5 kg/m3
2902.1 kPa	987.6 kg/m3
2918.6 kPa	987.6 kg/m3
2935.2 kPa	987.6 kg/m3
2954.3 kPa	987.6 kg/m3
2972 kPa	987.8 kg/m3
2987.9 kPa	987.4 kg/m3
3008.9 kPa	987.6 kg/m3
3025.6 kPa	987.6 kg/m3
3043.9 kPa	987.6 kg/m3
3062.1 kPa	987.7 kg/m3
3082.8 kPa	987.8 kg/m3
3101.3 kPa	987.7 kg/m3
3118.5 kPa	987.7 kg/m3
3140.8 kPa	987.7 kg/m3
3158.5 kPa	987.7 kg/m3
3176.4 kPa	987.8 kg/m3
3198.6 kPa	987.7 kg/m3
3218.2 kPa	987.7 kg/m3
3237.6 kPa	987.8 kg/m3
3256.6 kPa	987.8 kg/m3
3279 kPa	987.8 kg/m3
3300 kPa	987.8 kg/m3
3320.3 kPa	987.7 kg/m3
3339.7 kPa	987.8 kg/m3
3362.4 kPa	987.8 kg/m3
3382.2 kPa	987.9 kg/m3
3402.9 kPa	987.8 kg/m3
3422.4 kPa	987.9 kg/m3
3448.4 kPa	987.9 kg/m3
3468.1 kPa	987.9 kg/m3
3488.6 kPa	987.9 kg/m3
3515.4 kPa	987.8 kg/m3
3535.7 kPa	988 kg/m3
3561.2 kPa	987.9 kg/m3
3584.9 kPa	987.9 kg/m3
3606.2 kPa	987.9 kg/m3
3628.7 kPa	988 kg/m3
3652.3 kPa	987.9 kg/m3
3675 kPa	988 kg/m3
3703.2 kPa	988 kg/m3
3725.9 kPa	988 kg/m3
3750.4 kPa	988.1 kg/m3
3777.7 kPa	988.1 kg/m3
3800.4 kPa	988.1 kg/m3
3825.2 kPa	988 kg/m3
3853.3 kPa	988 kg/m3
3879.1 kPa	988 kg/m3
3903.5 kPa	988 kg/m3
3929.1 kPa	988.2 kg/m3
3959.3 kPa	988.2 kg/m3
3983.7 kPa	988.1 kg/m3
4010 kPa	988.4 kg/m3
4036.2 kPa	988.2 kg/m3
4066.7 kPa	988.2 kg/m3
4093.2 kPa	988.2 kg/m3
4121.2 kPa	988.2 kg/m3
4152.6 kPa	988.3 kg/m3
4181.1 kPa	988.3 kg/m3
4209.5 kPa	988.3 kg/m3
4236.7 kPa	988.3 kg/m3
4257.5 kPa	988.4 kg/m3
4379.6 kPa	988.4 kg/m3
4380.1 kPa	988.4 kg/m3
4380.5 kPa	988.4 kg/m3
4380.8 kPa	988.4 kg/m3
4381 kPa	988.4 kg/m3
4381.5 kPa	988.3 kg/m3
4381.9 kPa	988.6 kg/m3
4382.2 kPa	988.4 kg/m3
4382.4 kPa	988.4 kg/m3
4382.6 kPa	988.3 kg/m3 and 988.5 kg/m3
4382.7 kPa	988.4 kg/m3
4382.9 kPa	988.4 kg/m3 and 988.5 kg/m3
4383.1 kPa	988.4 kg/m3
4383.2 kPa	988.3 kg/m3 and 988.4 kg/m3
4383.4 kPa	988.5 kg/m3 and 988.4 kg/m3
4383.6 kPa	988.3 kg/m3 and 988.4 kg/m3 and 988.5 kg/m3
4383.8 kPa	988.5 kg/m3 and 988.4 kg/m3
4383.9 kPa	988.4 kg/m3 and 988.5 kg/m3 and 988.3 kg/m3
4384.1 kPa	988.4 kg/m3 [middle of 5 runs]
4384.3 kPa	988.4 kg/m3 and 988.5 kg/m3 and 988.3 kg/m3
4384.5 kPa	988.4 kg/m3 and 988.5 kg/m3 and 988.3 kg/m3
4384.6 kPa	988.5 kg/m3 and 988.4 kg/m3
4384.8 kPa	988.4 kg/m3 and 988.3 kg/m3
4385 kPa	988.4 kg/m3 and 988.3 kg/m3 and 988.5 kg/m3
4385.1 kPa	988.4 kg/m3 and 988.3 kg/m3 and 988.5 kg/m3
4385.3 kPa	988.4 kg/m3 and 988.5 kg/m3
4385.4 kPa	988.4 kg/m3
4385.5 kPa	988.4 kg/m3 and 988.3 kg/m3
